Test system: Melanoderm tissue equivalent model MEL-300 containing melanocytes obtained from dark skin individuals
Experiment: Melanoderm tissue equivalent model MEL-300, total melanin content (inhibition of melanogenesis)
Format: cell-based
Conditions: 14 days; for inhibition at 10 µM: Melanocyte, 336 h, 10 μM in maintenance medium, total melanin content vs DMSO vehicle control, read-out: Melanoderm (% Reduction at 10 μM); for melanogenesis inhibition (in words): Melanoderm MEL-300, 10 μM
Protocol: Melanoderm tissue equivalent model MEL-300 (MatTek: Ashland, Mass.) containing melanocytes obtained from dark skin individuals were cultured as per supplier instructions. Components were added to the maintenance medium phase (no topical treatments) at a final concentration of 10 μM for 14 days at which time the experiment was terminated and the tissues assessed for melanin content. Medium and treatments were changed three times per week. DMSO was utilized as the vehicle control and all treatments were performed at least in duplicate.
For quantification of total melanin, each Melanoderm was placed into an individual Eppendorf tube (2 mL) into which 250 μL of Solvable™ tissue solubilizer (Packard Bioscience Co., Cat# 6NE9100) was added. Each tube was vortexed and incubated at 60° C. for 18 hours. Each sample was then centrifuged (5-minutes at 13,000 RPMs) to remove any particulates. 100 or 200 μL of supernatant were transferred to a 96 well microtiter plate and the absorbance read at 490 nm. Total melanin content was calculated from a standard curve using synthetic melanin (Sigma Cat# M8631). Data was analyzed for significance using the t-test in Microsoft Excel to generate p-values (p-values less than 0.01 represent 99% confidence, p values of 0.05 represent 95% confidence both of which are statistically significant).

Structure (SMILES)	inhibition at 10 µM	melanogenesis inhibition (in words)
CN(C)CCN(Cc1ccc(F)cc1)Cc1ccc(F)cc1 [Compound 5c, N,N-bis(4-fluorobenzyl)-N′,N′-dimethylethane-1,2-diamine]	49.3%	–
c1ccc(CN(CCN2CCCC2)Cc2ccccc2)cc1 [Compound 5e, N,N-dibenzyl-2-(pyrrolidin-1-yl)ethanamine]	40.6%	–
CN(C)CCN(CCc1ccccc1)Cc1ccccc1 [Compound 3c, N-benzyl-N′,N′-dimethyl-N-(2-phenylethyl)ethane-1,2-diamine]	51.8%	–
CN(C)CCN(Cc1ccccc1)Cc1ccc(F)cc1 [Compound 3i, N-benzyl-N-(4-fluorobenzyl)-N′,N′-dimethylethane-1,2-diamine]	47.8%	–
Cc1ccc(CN(CCN(C)C)Cc2ccccc2)cc1 [Compound 3g, N-benzyl-N′,N′-dimethyl-N-(4-methylbenzyl)ethane-1,2-diamine]	53.2%	–
CC(c1ccccc1)N(CCN(C)C)Cc1ccccc1 (stereo not shown) [Compound 11, N-benzyl-N′,N′-dimethyl-N-(1-phenylethyl)ethane-1,2-diamine]	47.8%	–
CN(C)CCN(Cc1ccccc1)CC1CCCCC1 [Compound 3a, N-benzyl-N-(cyclohexylmethyl)-N′,N′-dimethylethane-1,2-diamine]	51.3%	effective at melanogenesis inhibition
CCN(CC)CCN(Cc1ccccc1)Cc1ccccc1 [Compound 5d, N,N-dibenzyl-N′,N′-diethylethane-1,2-diamine]	45.6%	–
Cc1ccccc1CN(CCN(C)C)Cc1ccccc1 [Compound 3e, N-benzyl-N′,N′-dimethyl-N-(2-methylbenzyl)ethane-1,2-diamine]	46.6%	–
CN(C)CCN(Cc1ccccc1)C(=O)c1ccccc1 [Compound 7, N-benzyl-N-[2-(dimethylamino)ethyl]benzamide]	4.4%	is not
Cc1cccc(CN(CCN(C)C)Cc2ccccc2)c1 [Compound 3f, N-benzyl-N′,N′-dimethyl-N-(3-methylbenzyl)ethane-1,2-diamine]	51.6%	–
CN(C)CCN(Cc1ccccc1)Cc1ccccc1 [Compound 3b, N,N-dibenzyl-N′,N′-dimethylethane-1,2-diamine]	39.5%	effective at melanogenesis inhibition
CN(C)CCN(Cc1ccccc1)Cc1ccc2ccccc2c1 [Compound 3d, N-benzyl-N′,N′-dimethyl-N-(naphthalen-2-ylmethyl)ethane-1,2-diamine]	56%	–
CN(C)CCCN(Cc1ccccc1)Cc1ccccc1 [Compound 5f, N,N-dibenzyl-N′,N′-dimethylpropane-1,3-diamine]	50%	–
CN(C)CCN(CC1CCCCC1)CC1CCCCC1 [Compound 5a, N,N-bis(cyclohexylmethyl)-N′,N′-dimethylethane-1,2-diamine]	42.5%	–
COc1ccc(CN(CCN(C)C)Cc2ccc(OC)cc2)cc1 [Compound 5b, N,N-bis(4-methoxybenzyl)-N′,N′-dimethylethane-1,2-diamine]	48.7%	–
CCN(CCN(C)C)Cc1ccccc1 [Compound 3j, N-benzyl-N-ethyl-N′,N′-dimethylethane-1,2-diamine]	-0.1%	is not
COc1ccc(CN(CCN(C)C)Cc2ccccc2)cc1 [Compound 3h, N-benzyl-N-(4-methoxybenzyl)-N′,N′-dimethylethane-1,2-diamine]	48.8%	–
